Data published in patent US20240425517A1, “NOVEL COMPOUND FOR DEGRADATION OF TARGET PROTEIN OR POLYPEPTIDE BY POLYUBIQUITINATION” (PRAZER THERAPEUTICS INC., priority 2021, published 2024).

Each compound was assayed against T1, BRD4 proteins (Homo sapiens, UniProt O60885) (assay: Degradation of BRD4 protein in MM.1S cell lines (Western blot densitometry)). Settings: MM.1S cells, 10 μM, 24 hours.
T1 construct: endogenous in cells; host or cells: MM.1S
Type: cell-based
Outline: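 MM.1S cells in RPMI-1640 with 10% FBS were treated with each degrader at 10 μM for 24 h. RIPA lysates were analysed by SDS-PAGE/Western blot with β-actin as reference, and BRD4 band densitometry was scored as reduction <40% (+), 40-<70% (++) or ≥70% (+++).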

| Structure (SMILES) | BRD4 degrading capacity (%) |
| --- | --- |
| Cc1sc2c(c1C)C(c1ccc(Cl)cc1)=N[C@@H](CC(=O)NCCCCC(=O)Nc1ccc(C#CCN)c(CO)c1)c1nnc(C)n1-2.Cl [5-9′, (S)—N-(4-(3-aminoprop-1-yn-1-yl)-3-(hydroxymethyl)phenyl)-5-(2-(4-(4-chlorophenyl)-2,3,9-trimethyl-6H-thieno[3,2-f][1,2,4]triazolo[4,3-a][1,4]diazepin-6-yl)acetamido)pentanamide hydrochloride] | ++ (the degrading capacity was reduced by 40% to 70% (exclusive of 70)) |
| COC(=O)c1ccc(OCCCCNC(=O)C[C@@H]2N=C(c3ccc(Cl)cc3)c3c(sc(C)c3C)-n3c(C)nnc32)cc1C#CCN.Cl [5-12′, methyl (S)-2-(3-aminoprop-1-yn-1-yl)-4-(4-(2-(4-(4-chlorophenyl)-2,3,9-trimethyl-6H-thieno[3,2-f][1,2,4]triazolo[4,3-a][1,4]diazepin-6-yl)acetamido)butoxy)benzoate hydrochloride] | +++ (the degrading capacity was reduced by 70% or more) |
| COC(=O)c1ccc(C(=O)NCCCNC(=O)C[C@@H]2N=C(c3ccc(Cl)cc3)c3c(sc(C)c3C)-n3c(C)nnc32)cc1C#CCN.Cl [5-18′, methyl (S)-2-(3-aminoprop-1-yn-1-yl)-4-((3-(2-(4-(4-chlorophenyl)-2,3,9-trimethyl-6H-thieno[3,2-f][1,2,4]triazolo[4,3-a][1,4]diazepin-6-yl)acetamido)propyl)carbamoyl)benzoate hydrochloride] | +++ (the degrading capacity was reduced by 70% or more) |
| COC(=O)c1ccc(C(=O)NC2CCN(C(=O)C[C@@H]3N=C(c4ccc(Cl)cc4)c4c(sc(C)c4C)-n4c(C)nnc43)CC2)cc1C#CCN.Cl [5-22′, methyl (S)-2-(3-aminoprop-1-yn-1-yl)-4-((1-(2-(4-(4-chlorophenyl)-2,3,9-trimethyl-6H-thieno[3,2-f][1,2,4]triazolo[4,3-a][1,4]diazepin-6-yl)acetyl)piperidin-4-yl)carbamoyl)benzoate hydrochloride] | +++ (the degrading capacity was reduced by 70% or more) |
| COC(=O)c1ccc(NC(=O)C2CCN(C(=O)C[C@@H]3N=C(c4ccc(Cl)cc4)c4c(sc(C)c4C)-n4c(C)nnc43)CC2)cc1C#CCN.Cl [5-23′, methyl (S)-2-(3-aminoprop-1-yn-1-yl)-4-(1-(2-(4-(4-chlorophenyl)-2,3,9-trimethyl-6H-thieno[3,2-f][1,2,4]triazolo[4,3-a][1,4]diazepin-6-yl)acetyl)piperidine-4-carboxamido)benzoate hydrochloride] | +++ (the degrading capacity was reduced by 70% or more) |
| COC(=O)c1ccc(NC(=O)CCNC(=O)C2CCN(C(=O)C[C@@H]3N=C(c4ccc(Cl)cc4)c4c(sc(C)c4C)-n4c(C)nnc43)CC2)cc1C#CCN.Cl [5-25′, methyl (S)-2-(3-aminoprop-1-yn-1-yl)-4-(3-(1-(2-(4-(4-chlorophenyl)-2,3,9-trimethyl-6H-thieno[3,2-f][1,2,4]triazolo[4,3-a][1,4]diazepin-6-yl)acetyl)piperidine-4-carboxamido)propanamido)benzoate hydrochloride] | +++ (the degrading capacity was reduced by 70% or more) |
| COC(=O)c1ccc(NC(=O)CCCNC(=O)C2CCN(C(=O)C[C@@H]3N=C(c4ccc(Cl)cc4)c4c(sc(C)c4C)-n4c(C)nnc43)CC2)cc1C#CCN.Cl [5-26′, methyl (S)-2-(3-aminoprop-1-yn-1-yl)-4-(4-(1-(2-(4-(4-chlorophenyl)-2,3,9-trimethyl-6H-thieno[3,2-f][1,2,4]triazolo[4,3-a][1,4]diazepin-6-yl)acetyl)piperidine-4-carboxamido)butanamido)benzoate hydrochloride] | ++ (the degrading capacity was reduced by 40% to 70% (exclusive of 70)) |
| COC(=O)c1ccc(C(=O)NCCCNC(=O)C2CCN(C(=O)C[C@@H]3N=C(c4ccc(Cl)cc4)c4c(sc(C)c4C)-n4c(C)nnc43)CC2)cc1C#CCN.Cl [5-27′, methyl (S)-2-(3-aminoprop-1-yn-1-yl)-4-((3-(1-(2-(4-(4-chlorophenyl)-2,3,9-trimethyl-6H-thieno[3,2-f][1,2,4]triazolo[4,3-a][1,4]diazepin-6-yl)acetyl)piperidine-4-carboxamido)propyl)carbamoyl)benzoate hydrochloride] | ++ (the degrading capacity was reduced by 40% to 70% (exclusive of 70)) |
| COC(=O)c1ccc(C#CCNC(=O)C2CCN(C(=O)C[C@@H]3N=C(c4ccc(Cl)cc4)c4c(sc(C)c4C)-n4c(C)nnc43)CC2)cc1C#CCN.Cl [5-28′, methyl (S)-2-(3-aminoprop-1-yn-1-yl)-4-(3-(1-(2-(4-(4-chlorophenyl)-2,3,9-trimethyl-6H-thieno[3,2-f][1,2,4]triazolo[4,3-a][1,4]diazepin-6-yl)acetyl)piperidine-4-carboxamido)prop-1-yn-1-yl)benzoate hydrochloride] | +++ (the degrading capacity was reduced by 70% or more) |
| COC(=O)c1ccc(N2CCN(CC3CCN(C(=O)C[C@@H]4N=C(c5ccc(Cl)cc5)c5c(sc(C)c5C)-n5c(C)nnc54)CC3)CC2)cc1C#CCN.Cl [5-29′, methyl (S)-2-(3-aminoprop-1-yn-1-yl)-4-(4-((1-(2-(4-(4-chlorophenyl)-2,3,9-trimethyl-6H-thieno[3,2-f][1,2,4]triazolo[4,3-a][1,4]diazepin-6-yl)acetyl)piperidin-4-yl)methyl)piperazin-1-yl)benzoate hydrochloride] | +++ (the degrading capacity was reduced by 70% or more) |
| COC(=O)c1ccc(N2CCN(C(=O)CCNC(=O)C[C@@H]3N=C(c4ccc(Cl)cc4)c4c(sc(C)c4C)-n4c(C)nnc43)CC2)cc1C#CCN.Cl [5-32′, methyl (S)-2-(3-aminoprop-1-yn-1-yl)-4-(4-(3-(2-(4-(4-chlorophenyl)-2,3,9-trimethyl-6H-thieno[3,2-f][1,2,4]triazolo[4,3-a][1,4]diazepin-6-yl)acetamido)propanoyl)piperazin-1-yl)benzoate hydrochloride] | +++ (the degrading capacity was reduced by 70% or more) |
| COC(=O)c1cc(N2CCN(C(=O)CCNC(=O)C[C@@H]3N=C(c4ccc(Cl)cc4)c4c(sc(C)c4C)-n4c(C)nnc43)CC2)ccc1C#CCN.Cl [5-33′, methyl (S)-2-(3-aminoprop-1-yn-1-yl)-5-(4-(3-(2-(4-(4-chlorophenyl)-2,3,9-trimethyl-6H-thieno[3,2-f][1,2,4]triazolo[4,3-a][1,4]diazepin-6-yl)acetamido)propanoyl)piperazin-1-yl)benzoate hydrochloride] | ++ (the degrading capacity was reduced by 40% to 70% (exclusive of 70)) |
| COC(=O)c1ccc(NC2CCC(NC(=O)C[C@@H]3N=C(c4ccc(Cl)cc4)c4c(sc(C)c4C)-n4c(C)nnc43)CC2)cc1C#CCN (stereo partly drawn) [5-35′, methyl (S)-2-(3-aminoprop-1-yn-1-yl)-4-((4-(2-(4-(4-chlorophenyl)-2,3,9-trimethyl-6H-thieno[3,2-f][1,2,4]triazolo[4,3-a][1,4]diazepin-6-yl)acetamido)cyclohexyl)amino)benzoate trifluoroacetic acid] | +++ (the degrading capacity was reduced by 70% or more) |
| COC(=O)c1ccc(C(=O)N2CCC3(CC2)CN(C(=O)C[C@@H]2N=C(c4ccc(Cl)cc4)c4c(sc(C)c4C)-n4c(C)nnc42)C3)cc1C#CCN [5-39′, methyl (S)-2-(3-aminoprop-1-yn-1-yl)-4-(2-(2-(4-(4-chlorophenyl)-2,3,9-trimethyl-6H-thieno[3,2-f][1,2,4]triazolo[4,3-a][1,4]diazepin-6-yl)acetyl)-2,7-diazaspiro[3.5]nonane-7-carbonyl)benzoate trifluoroacetic acid] | ++ (the degrading capacity was reduced by 40% to 70% (exclusive of 70)) |
| COC(=O)c1ccc(N2CC3(CN(C(=O)C[C@@H]4N=C(c5ccc(Cl)cc5)c5c(sc(C)c5C)-n5c(C)nnc54)C3)C2)cc1C#CCN [5-40′, methyl (S)-2-(3-aminoprop-1-yn-1-yl)-4-(6-(2-(4-(4-chlorophenyl)-2,3,9-trimethyl-6H-thieno[3,2-f][1,2,4]triazolo[4,3-a][1,4]diazepin-6-yl)acetyl)-2,6-diazaspiro[3.3]heptan-2-yl)benzoate trifluoroacetic acid] | +++ (the degrading capacity was reduced by 70% or more) |
| COC(=O)c1ccc(C(=O)N2CC3(CN(C(=O)C[C@@H]4N=C(c5ccc(Cl)cc5)c5c(sc(C)c5C)-n5c(C)nnc54)C3)C2)cc1C#CCN [5-41′, methyl (S)-2-(3-aminoprop-1-yn-1-yl)-4-(6-(2-(4-(4-chlorophenyl)-2,3,9-trimethyl-6H-thieno[3,2-f][1,2,4]triazolo[4,3-a][1,4]diazepin-6-yl)acetyl)-2,6-diazaspiro[3.3]heptane-2-carbonyl)benzoate trifluoroacetic acid] | +++ (the degrading capacity was reduced by 70% or more) |
| COC(=O)c1ccc(N2CC3CN(C(=O)C[C@@H]4N=C(c5ccc(Cl)cc5)c5c(sc(C)c5C)-n5c(C)nnc54)CC3C2)cc1C#CCN (stereo partly drawn) [5-44′, methyl 2-(3-aminoprop-1-yn-1-yl)-4-(5-(2-((S)-4-(4-chlorophenyl)-2,3,9-trimethyl-6H-thieno[3,2-f][1,2,4]triazolo[4,3-a][1,4]diazepin-6-yl)acetyl)hexahydropyrrolo[3,4-c]pyrrol-2(1H)-yl)benzoate trifluoroacetic acid] | ++ (the degrading capacity was reduced by 40% to 70% (exclusive of 70)) |
| Cc1sc2c(c1C)C(c1ccc(Cl)cc1)=N[C@@H](CC(=O)NCCCC(=O)Nc1ccc(C(=O)O)c(C#CCN)c1)c1nnc(C)n1-2.Cl [5-53′, (S)-2-(3-aminoprop-1-yn-1-yl)-4-(4-(2-(4-(4-chlorophenyl)-2,3,9-trimethyl-6H-thieno[3,2-f][1,2,4]triazolo[4,3-a][1,4]diazepin-6-yl)acetamido)butanamido)benzoic acid hydrochloride] | ++ (the degrading capacity was reduced by 40% to 70% (exclusive of 70)) |
